Laboratory results taken from patent US9303045B2, “5-HT3 receptor antagonists” (Takeda Pharmaceutical Company Limited, priority 2013, dated 2016).

Test system: PCP-induced cognitive deficits
Assay: Rodent novel object recognition (NOR) assay in phencyclidine-induced cognitive deficits modeling schizophrenia
Format: in vivo, rat
Set-up: key to time spent exploring novel object (TN) / time spent exploring familiar object (TF): exploration time in seconds
Conditions: PCP-treated rats, 2 h ITI
Excerpt: Rodent Novel Object Recognition (NOR) Assay in Phencyclidine-Induced Cognitive Deficits Modeling Schizophrenia
The aim of this study was to investigate the ability of the compounds of the invention to improve subchronic PCP-induced impairment in cognition memory using the NOR task in the rat, a paradigm of relevance to cognition in schizophrenia. Adult male Sprague-Dawley rats (250-350 g; Harlan, USA) were used for the experiments Animal were acclimated to the facility for 7 days prior to experimentation. Seven groups of 14 animals per group were used for the experiment. One group of animals received vehicle (0.9% saline twice daily) and the remaining six groups received PCP (2.5 mg/kg, s.c. twice daily) for 7 days, followed by 5-days drug free. On the test day, the animals were allowed to acclimate to the testing room for 30 min prior to initiation of experiments. Experiments were carried out in a white plexiglass chamber, designated as experimental arena. The arena was placed in a dark experimental room that was illuminated by a halogen lamp, providing a dim light to the arena.
Animals were placed in the arena for a 5 minute period to freely explore the test chamber in the absence of objects (habituation). Animals were then returned to their home cage immediately upon completion of habituation for a 120 min period. (1R,3R,5S)-8-Methyl-8-azabicyclo[3.2.1]octan-3-yl 1-(2,2,2-trifluoroethyl)-1H-indole-3-carboxylate (0.1, 1, 10 mg/kg s.c.), or vehicle (veh, saline) was administered 120 min prior to T1 and galantamine (5 mg/kg, i.p.) was administered 30 min prior to T1. Animals were returned to the arena which contained two identical objects (plastic balls) placed at one end of the arena (acquisition, T1), and allowed to explore for a 5 min period. The time spent exploring the two objects was recorded Animals were once again returned to the home cage for a period of 120 min (ITI).
ITI was followed by the retention phase (T2) where one of the objects presented in the first trial was replaced by a novel object and animals were allowed to explore for an additional 5 min period. Again, the time spent exploring the two objects was recorded.
For the retention phase, the differences between the time spent exploring the familiar object and the novel object were examined. All sessions were recorded and scored blindly for the time exploring objects. Exploration is defined as touching the object or directing nose towards object at a distance less that 2 cm. A minimal exploration criterion was used such that only animals with exploration time of greater than 5 seconds per object were included.
Comparisons of all treatment groups were conducted using a one-way ANOVA followed by a Bonferroni's post hoc test for multiple comparisons.

[1] = 0.1 mg/kg s.c. (bracket prints 0.01 mg/kg)
[2] = 1 mg/kg s.c. (bracket prints 0.1 mg/kg)

| SMILES | time spent exploring familiar object (TF) [1] | time spent exploring novel object (TN) [1] | discrimination between familiar and novel objects (0.1 mg/kg s.c.) | time spent exploring familiar object (TF) [2] | time spent exploring novel object (TN) [2] | discrimination between familiar and novel objects (1 mg/kg s.c.) | discrimination between familiar and novel objects (10 mg/kg s.c.) | time spent exploring familiar object (TF) (10 mg/kg s.c.) | time spent exploring novel object (TN) (10 mg/kg s.c.) | discrimination between familiar and novel objects (galantamine 5 mg/kg i.p.) | time spent exploring familiar object (TF) (galantamine 5 mg/kg i.p.) | time spent exploring novel object (TN) (galantamine 5 mg/kg i.p.) |
| --- | --- | --- | --- | --- | --- | --- | --- | --- | --- | --- | --- | --- |
| CN1[C@@H]2CC[C@H]1C[C@@H](OC(=O)c1cn(CC(F)(F)F)c3ccccc13)C2 | 12.5±2.152 | 22.9±3.65 | did not demonstrate a statistically significant discrimination | 12.7±1.027 | 25.3±2.51 | demonstrated a statistically significant discrimination | demonstrated a statistically significant discrimination | 9.831±1.53 | 22.8±2.48 | – | – | – |
| COc1ccc2c3c1O[C@H]1C[C@@H](O)C=C[C@@]31CCN(C)C2 [Galantamine, galantamine, reference compound] | – | – | – | – | – | – | – | – | – | statistically significant discrimination | 11.19±1.376 | 22.8±2.2 |
